Reference: patent publication US9493430B2, “Biaryl- or heterocyclic biaryl-substituted cyclohexene derivative compounds as CETP inhibitors” (CHONG KUN DANG PHARMACEUTICAL CORP., priority 2013, dated 2016)
pIC50: −log10 of the molar value.

Tests used:
[1] = tested on: H295R cell line (human adrenal cortical tumor cells); assay type: cell-based; conditions: 24 hours, 100 nM of torcetrapib, 1 μM of test compounds
Procedure: Evaluation of the Ability of CETP Inhibitor to Secrete Blood Pressure-Hormone
Based on this, the secretion of blood pressure-increasing hormones from human adrenal cortical tumor cells was evaluated. The cell line H295R was purchased from ATCC (CRL-2128) and cultured in DMEM/F-12 medium (1% ITS, 2.5% Nu-serum). The H295R cell line was dispensed into a 24-well plate at a cell density of 1×10^5/well, and stabilized for 24 hours, after which the cells were starved for 24 hours using serum-free DMEM/F-12. Then, the cells were treated with each of 100 nM of torcetrapib and 1 μM of test compounds 554, 557, 574, 584, 586, 593, 618, 643, 650, 661, 681 and 695. At 24 hours after treatment with the drug or the compound, the supernatant was taken and stored at −20° C. The supernatant stored at −20° C. was thawed, and the amounts of aldosterone and cortisol secreted from the cells were measured using an aldosterone EIA kit (Cayman-10004377) and cortisol EIA kit (Cayman-500360).
2. Statistical Processing
(§1) All test results were expressed as Mean±SEM, and to evaluate the effect of each test group, each test group was compared with the control group using one-way ANOVA test (Dunnett's test, p<0.001).

patients [2] = conditions: cited from earlier work
[3] = tested on: human adrenal cortical tumor cells; conditions: cited from earlier work
golden Syrian hamsters = assay: Test for anti-hyperlipidemic effect in hamsters (in vivo); conditions: Mesocricetus auratus, po, 3 mg/kg orally for 5 days, blood 4 hours after final administration, vs control; for inhibition in vivo at 3 mg/kg: read-out: Decrease in LDL-c (%); for change in vivo at 3 mg/kg: read-out: Increase in HDL-c (%)
Text: Test for Anti-Hyperlipidemic Effect in Hamsters (In Vivo)
In this test, 8-week-old male golden Syrian hamsters were used. The breeding room was maintained at constant temperature and constant humidity and a 12-hr light/12-hr dark cycle. The animals were allowed access to feed and water ad libitum.
2. Anti-Hyperlipidemic Test in Hamsters
The test animals were acclimated for 1 week before use in the test. The test animals were divided according to body weight into several groups, each consisting of 5-8 animals, and were then administered orally with a dose of 3 mg/kg. A solvent control and a CETP inhibitor were dissolved in imwitor 742: tween 80 (1:1) and administered orally for 5 days, and at 4 hours after the final administration, blood was collected from the heart. The collected blood was centrifuged at 3000 rpm for 15 minutes, and the separated serum was measured for HDL-Cholesterol (Biosystem) and LDL-Cholesterol (Biosystem) using a biochemical analysis instrument (ILab 300 plus, Instrumentation Laboratory).
(§2) 3. Statistical Processing
as §1

CETP = CETP (Homo sapiens (Human), UniProt P11597); assay: Test for inhibition of cholesteryl ester transfer (in vitro); assay type: biochemical; conditions: human plasma as CETP source, LDL from healthy persons as acceptor, rHDL-agarose donor, 37° C.
Text: Test for Inhibition of Cholesteryl Ester Transfer (In Vitro)
1. Construction of Cholesteryl Ester Donor
To construct a cholesteryl ester donor to be used in the test, radiolabeled recombinant HDL containing […] (GE healthcare, TRK886, 3.5 μCi/mg of apoA-1) and apoA-1 was synthesized. Then, rHDL-agarose having the recombinant HDL immobilized thereon by CNBr-activated Sepharose 4B (Amersham Biosciences, Sweden) resin was used in the test.
2. Cholesteryl Ester Transfer Test
As a protein source for cholesteryl ester transfer, plasma from healthy persons was used, and as a cholesteryl ester receptor, LDL from healthy persons was used. Samples were treated with each test compound to final concentrations of 16, 80, 400, 2000 and 10000 nM and analyzed in duplicate. For the cholesteryl ester transfer test, 20 μl of plasma, 50 μl of LDL (0.25 mg/ml) and 50 μl of rHDL-agarose (0.25 mg/ml) were added, and a solution containing a test compound was added, followed by reaction at 37° C. Then, centrifugation was performed at 4° C. for 3 minutes to stop the reaction, and 150 μl of the supernatant was taken and transferred to a 96-well plate for radioactivity measurement, and the radioactivity of the plate was measured with a beta-ray detector.
as §2
The ratio of [^3H]-cholesteryl oleate from HDL to LDL was calculated and used as a result value, and from the result value, IC50 value was calculated using GraphPad Prism 5.0.

patients [4] = conditions: human, in vivo; cited from earlier work
patients [5] = conditions: human, in vivo; cited from earlier work; remark: listed apart in the source
patients [6] = conditions: patients administered with Anacetrapib; cited from earlier work

CETP, sequence (P11597 18-493): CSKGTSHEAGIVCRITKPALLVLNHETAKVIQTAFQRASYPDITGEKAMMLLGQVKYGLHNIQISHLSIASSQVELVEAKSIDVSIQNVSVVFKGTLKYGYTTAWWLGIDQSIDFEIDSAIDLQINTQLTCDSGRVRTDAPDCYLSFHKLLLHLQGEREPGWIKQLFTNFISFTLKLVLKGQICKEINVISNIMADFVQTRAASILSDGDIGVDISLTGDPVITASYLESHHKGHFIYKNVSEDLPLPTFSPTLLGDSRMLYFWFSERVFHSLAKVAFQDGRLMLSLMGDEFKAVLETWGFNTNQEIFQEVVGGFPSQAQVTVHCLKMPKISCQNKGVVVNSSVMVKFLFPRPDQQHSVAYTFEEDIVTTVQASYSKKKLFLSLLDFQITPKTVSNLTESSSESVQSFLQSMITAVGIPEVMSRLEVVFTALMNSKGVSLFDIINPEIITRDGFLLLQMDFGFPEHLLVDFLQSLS

Compound	inhibition in vivo at 3 mg/kg (golden Syrian hamsters)	change in vivo at 3 mg/kg (golden Syrian hamsters)	pIC50 (CETP)	also measured
CCOC(=O)N1c2ccc(C(F)(F)F)cc2[C@@H](N(Cc2cc(C(F)(F)F)cc(C(F)(F)F)c2)C(=O)OC)C[C@H]1CC [torcetrapib]	–	–	–	secretion of aldosterone [1]: increased the secretion of the two hormones; secretion of cortisol [1]: increased the secretion of the two hormones; morbidity rate and mortality rate (patients [2]; combination of torcetrapib and atorvastatin compared to atorvastatin alone): increase; blood pressure (patients [2]; human, in vivo): causes an increase in blood pressure; mortality rate (patients [2]; human, in vivo): an increase in mortality rate; secretion of aldosterone [3]: increased the secretion of aldosterone and cortisol; secretion of cortisol [3]: increased the secretion of aldosterone and cortisol
Cc1cc(C(=O)O)ccc1-c1cc(F)cc(C2=C(CN3C(=O)O[C@H](c4cc(C(F)(F)F)cc(C(F)(F)F)c4)[C@@H]3C)CC(C)(C)CC2)c1 [Compound 650, 3′-(2-(((4S,5R)-5-(3,5-bis(trifluoromethyl)phenyl)-4-methyl-2-oxooxazolidin-3-yl)methyl)-4,4-dimethylcyclohex-1-enyl)-5′-fluoro-2-methylbiphenyl-4-carboxylic acid]	24%	50%	7.92	–
COc1ccc(-c2ccc(C(=O)O)cc2C)cc1C1=C(CN2C(=O)O[C@H](c3cc(C(F)(F)F)cc(C(F)(F)F)c3)[C@@H]2C)CC(C)(C)CC1 [Compound 554, 3′-(2-(((4S,5R)-5-(3,5-bis(trifluoromethyl)phenyl)-4-methyl-2-oxooxazolidin-3-yl)methyl)-4,4-dimethylcyclohex-1-enyl)-4′-methoxy-2-methylbiphenyl-4-carboxylic acid]	42%	72%	8.24	–
C[C@H]1[C@@H](c2cc(C(F)(F)F)cc(C(F)(F)F)c2)OC(=O)N1CC1=C(c2cc(-c3ccc(C(=O)O)cc3C(F)(F)F)ccc2F)CCC(C)(C)C1 [Compound 695, 3′-(2-(((4S,5R)-5-(3,5-bis(trifluoromethyl)phenyl)-4-methyl-2-oxooxazolidin-3-yl)methyl)-4,4-dimethylcyclohex-1-enyl)-4′-fluoro-2-(trifluoromethyl)biphenyl-4-carboxylic acid]	35%	71%	8.19	–
Cc1cc(C)c2c(c1)[C@@H](N(Cc1cc(C(F)(F)F)cc(C(F)(F)F)c1)c1nnn(C)n1)CCCN2C[C@H]1CC[C@H](C(=O)O)CC1 [Evacetrapib]	–	–	–	HDL-c levels (patients [4]): increases HDL-c levels in a dose-dependent manner; side effects such as blood pressure elevation (patients [4]): does not cause side effects such blood pressure elevation
COc1ncc(-c2ccc(C(=O)O)cc2F)cc1C1=C(CN2C(=O)O[C@H](c3cc(C(F)(F)F)cc(C(F)(F)F)c3)[C@@H]2C)CC(C)(C)CC1 [Compound 586, 4-(3-(2-(((4S,5R)-5-(3,5-bis(trifluoromethyl)phenyl)-4-methyl-2-oxooxazolidin-3-yl)methyl)-4,4-dimethylcyclohex-1-enyl)-2-methoxypyridin-5-yl)-3-fluorobenzoic acid]	34%	37%	7.89	–
COc1ccc(-c2ccc(C(=O)O)cc2Cl)cc1C1=C(CN2C(=O)O[C@H](c3cc(C(F)(F)F)cc(C(F)(F)F)c3)[C@@H]2C)CC(C)(C)CC1 [Compound 643, 3′-(2-(((4S,5R)-5-(3,5-bis(trifluoromethyl)phenyl)-4-methyl-2-oxooxazolidin-3-yl)methyl)-4,4-dimethylcyclohex-1-enyl)-2-chloro-4′-methoxybiphenyl-4-carboxylic acid]	17%	68%	8.14	–
C[C@H]1[C@@H](c2cc(C(F)(F)F)cc(C(F)(F)F)c2)OC(=O)N1CC1=C(c2cc(F)cc(-c3ccc(C(=O)O)cc3C(F)(F)F)c2)CCC(C)(C)C1 [Compound 668, 3′-(2-(((4S,5R)-5-(3,5-bis(trifluoromethyl)phenyl)-4-methyl-2-oxooxazolidin-3-yl)methyl)-4,4-dimethylcyclohex-1-enyl)-5′-fluoro-2-(trifluoromethyl)biphenyl-4-carboxylic acid]	16%	44%	8.30	–
COc1ncc(-c2ccc(C(=O)O)cc2Cl)cc1C1=C(CN2C(=O)O[C@H](c3cc(C(F)(F)F)cc(C(F)(F)F)c3)[C@@H]2C)CC(C)(C)CC1 [Compound 584, 4-(3-(2-(((4S,5R)-5-(3,5-bis(trifluoromethyl)phenyl)-4-methyl-2-oxooxazolidin-3-yl)methyl)-4,4-dimethylcyclohex-1-enyl)-2-methoxypyridin-5-yl)-3-chlorobenzoic acid]	40%	46%	8.28	–
COc1cc(F)c(-c2ccc(C(=O)O)cc2Cl)cc1C1=C(CN2C(=O)O[C@H](c3cc(C(F)(F)F)cc(C(F)(F)F)c3)[C@@H]2C)CC(C)(C)CC1 [Compound 631, 5′-(2-(((4S,5R)-5-(3,5-bis(trifluoromethyl)phenyl)-4-methyl-2-oxooxazolidin-3-yl)methyl)-4,4-dimethylcyclohex-1-enyl)-2-chloro-2′-fluoro-4′-methoxybiphenyl-4-carboxylic acid]	30%	56%	8.72	–
CCC(CC)CC1(C(=O)Nc2ccccc2SC(=O)C(C)C)CCCCC1 [Dalcetrapib]	–	–	–	effects (efficacy) (patients [5]): insufficient effects; side effects (patients [5]): does not have the side effects of Torcetrapib
COc1ccc(-c2ccc(C(=O)O)cc2C(F)(F)F)cc1C1=C(CN2C(=O)O[C@H](c3cc(C(F)(F)F)cc(C(F)(F)F)c3)[C@@H]2C)CC(C)(C)CC1 [Compound 618, 3′-(2-(((4S,5R)-5-(3,5-bis(trifluoromethyl)phenyl)-4-methyl-2-oxooxazolidin-3-yl)methyl)-4,4-dimethylcyclohex-1-enyl)-4′-methoxy-2-(trifluoromethyl)biphenyl-4-carboxylic acid]	26%	65%	8.80	–
COc1cc(F)c(C(C)C)cc1-c1ccc(C(F)(F)F)cc1CN1C(=O)O[C@H](c2cc(C(F)(F)F)cc(C(F)(F)F)c2)[C@@H]1C [Anacetrapib]	–	–	–	HDL-c level increase (patients [6]): 138%; LDL-c level decrease (patients [6]): 40%
Cc1cc(C(=O)O)ccc1-c1cc(C2=C(CN3C(=O)O[C@H](c4cc(C(F)(F)F)cc(C(F)(F)F)c4)[C@@H]3C)CC(C)(C)CC2)ccc1F [Compound 681, 5′-(2-(((4S,5R)-5-(3,5-bis(trifluoromethyl)phenyl)-4-methyl-2-oxooxazolidin-3-yl)methyl)-4,4-dimethylcyclohex-1-enyl)-2′-fluoro-2-methylbiphenyl-4-carboxylic acid]	29%	25%	8.18	–
